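Cells were grown in 96-well plates and exposed to each compound for 48 hours at five concentrations; endpoints were interpolated linearly between bracketing concentrations, or set to the highest concentration if not reached. Here, GI50 denotes the concentration required for 50% inhibition of growth. Definition used: TGI = concentration required for complete inhibition of growth.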
Key:
Experiment in all cases: growth of human tumour cells (NCI), 48 h
NCI-H226 lung = test system: NCI-H226 lung
NCI-H23 lung = test system: NCI-H23 lung
NCI-H460 lung = test system: NCI-H460 lung
NCI-H522 lung = test system: NCI-H522 lung
NCI/ADR-RES ovarian = test system: NCI/ADR-RES ovarian
OVCAR-3 ovarian = test system: OVCAR-3 ovarian
OVCAR-4 ovarian = test system: OVCAR-4 ovarian
OVCAR-5 ovarian = test system: OVCAR-5 ovarian
OVCAR-8 ovarian = test system: OVCAR-8 ovarian
PC-3 prostate = test system: PC-3 prostate
RPMI-8226 leukemia = test system: RPMI-8226 leukemia
RXF 393 renal = test system: RXF 393 renal
SF-268 CNS = test system: SF-268 CNS
SF-295 CNS = test system: SF-295 CNS
SF-539 CNS = test system: SF-539 CNS
SK-MEL-2 melanoma = test system: SK-MEL-2 melanoma
SK-MEL-28 melanoma = test system: SK-MEL-28 melanoma
SK-MEL-5 melanoma = test system: SK-MEL-5 melanoma
SK-OV-3 ovarian = test system: SK-OV-3 ovarian
SN12C renal = test system: SN12C renal
SNB-19 CNS = test system: SNB-19 CNS
SNB-75 CNS = test system: SNB-75 CNS
SR leukemia = test system: SR leukemia
SW-620 colon = test system: SW-620 colon
T-47D breast = test system: T-47D breast
TK-10 renal = test system: TK-10 renal
U251 CNS = test system: U251 CNS
UACC-257 melanoma = test system: UACC-257 melanoma
UACC-62 melanoma = test system: UACC-62 melanoma
UO-31 renal = test system: UO-31 renal

How did the TGI (NCI-H226 lung) turn out when `OCCCNc1oc(-c2ccccc2)nc1[P+](c1ccccc1)(c1ccccc1)c1ccccc1` was run?
The TGI was 9.8 µM.

What about the GI50 (NCI-H23 lung) of the same compound?
The GI50 was 3.02 µM.

And the TGI (NCI-H23 lung)?
The TGI was 12.5 µM.

And the GI50 (NCI-H460 lung)?
Its GI50 is 2.61 µM.

What about the TGI (NCI-H460 lung) of the same compound?
The TGI was 11.3 µM.

And the GI50 (NCI-H522 lung)?
The GI50 was 1.76 µM.

What about the TGI (NCI-H522 lung) of the same compound?
Its TGI is 7.82 µM.

What about the GI50 (NCI/ADR-RES ovarian) of the same compound?
Its GI50 is greater than 100 µM.

And the TGI (NCI/ADR-RES ovarian)?
Its TGI is greater than 100 µM.

And the GI50 (OVCAR-3 ovarian)?
Its GI50 is 1.44 µM.

What about the TGI (OVCAR-3 ovarian) of the same compound?
Its TGI is 8.15 µM.

And the GI50 (OVCAR-4 ovarian)?
The GI50 was 2.37 µM.

What about the TGI (OVCAR-4 ovarian) of the same compound?
The TGI was 15.7 µM.

What about the GI50 (OVCAR-5 ovarian) of the same compound?
The GI50 was 3.42 µM.

And the TGI (OVCAR-5 ovarian)?
Its TGI is 15.5 µM.

What about the GI50 (OVCAR-8 ovarian) of the same compound?
Its GI50 is 2.84 µM.

And the TGI (OVCAR-8 ovarian)?
Its TGI is 10.7 µM.

What about the GI50 (PC-3 prostate) of the same compound?
Its GI50 is 1.6 µM.

And the TGI (PC-3 prostate)?
Its TGI is 9 µM.

What about the GI50 (RPMI-8226 leukemia) of the same compound?
The GI50 was 0.41 µM.

What about the TGI (RPMI-8226 leukemia) of the same compound?
The TGI was 10.2 µM.

And the GI50 (RXF 393 renal)?
Its GI50 is 1.23 µM.

What about the TGI (RXF 393 renal) of the same compound?
The TGI was 5.79 µM.

And the GI50 (SF-268 CNS)?
Its GI50 is 2.76 µM.

And the TGI (SF-268 CNS)?
Its TGI is 11.8 µM.

What about the GI50 (SF-295 CNS) of the same compound?
Its GI50 is 3.02 µM.

And the TGI (SF-295 CNS)?
The TGI was 10.5 µM.

And the GI50 (SF-539 CNS)?
The GI50 was 3.86 µM.

What about the TGI (SF-539 CNS) of the same compound?
The TGI was 14.4 µM.

What about the GI50 (SK-MEL-2 melanoma) of the same compound?
The GI50 was 2.49 µM.

What about the TGI (SK-MEL-2 melanoma) of the same compound?
The TGI was 6.46 µM.

And the GI50 (SK-MEL-28 melanoma)?
The GI50 was 2.09 µM.

What about the TGI (SK-MEL-28 melanoma) of the same compound?
Its TGI is 11 µM.

What about the GI50 (SK-MEL-5 melanoma) of the same compound?
The GI50 was 1.15 µM.

What about the TGI (SK-MEL-5 melanoma) of the same compound?
The TGI was 2.38 µM.

What about the GI50 (SK-OV-3 ovarian) of the same compound?
The GI50 was 2.34 µM.

What about the TGI (SK-OV-3 ovarian) of the same compound?
The TGI was 8.1 µM.

And the GI50 (SN12C renal)?
Its GI50 is 2.61 µM.

What about the TGI (SN12C renal) of the same compound?
Its TGI is 7.59 µM.

And the GI50 (SNB-19 CNS)?
Its GI50 is 2.15 µM.

And the TGI (SNB-19 CNS)?
Its TGI is 7.25 µM.

What about the GI50 (SNB-75 CNS) of the same compound?
Its GI50 is 1.3 µM.

What about the TGI (SNB-75 CNS) of the same compound?
Its TGI is 5.38 µM.

What about the GI50 (SR leukemia) of the same compound?
The GI50 was 3.43 µM.

What about the TGI (SR leukemia) of the same compound?
The TGI was 16.1 µM.

What about the GI50 (SW-620 colon) of the same compound?
The GI50 was 3.29 µM.

And the TGI (SW-620 colon)?
Its TGI is 15.2 µM.

And the GI50 (T-47D breast)?
Its GI50 is 1.26 µM.

And the TGI (T-47D breast)?
Its TGI is 6.72 µM.

What about the GI50 (TK-10 renal) of the same compound?
Its GI50 is 3.62 µM.

And the TGI (TK-10 renal)?
The TGI was 16.3 µM.

And the GI50 (U251 CNS)?
The GI50 was 2.67 µM.

What about the TGI (U251 CNS) of the same compound?
The TGI was 11.7 µM.

What about the GI50 (UACC-257 melanoma) of the same compound?
Its GI50 is 1.98 µM.

What about the TGI (UACC-257 melanoma) of the same compound?
Its TGI is 6.1 µM.

And the GI50 (UACC-62 melanoma)?
Its GI50 is 1.38 µM.

What about the TGI (UACC-62 melanoma) of the same compound?
Its TGI is 3.85 µM.

And the GI50 (UO-31 renal)?
Its GI50 is 15.7 µM.

And the TGI (UO-31 renal)?
The TGI was 33.2 µM.
